These results are taken from USRE49816E1, “Dipeptides as inhibitors of human immunoproteasomes” (CORNELL UNIVERSITY, priority 2014, dated 2024).

By IC50 is commonly meant the concentration at which inhibition is half-maximal.

Entries after “also recorded” stand apart in the source; their conditions may differ.

The test system of data set [1] is proteasome inside the Karpas 1106p cells. The experiment in a line: Cell-based Proteasome-Glo assay after compound removal. More on the design: species or system human. Conditions: 4 hours, read-out: Proteasome-glo β5-IC50.
The subject of another data set is Karpas cells. Description: Accumulation of poly-ubiquitinylated proteins in Karpas cells (anti-ub blot). Format: cell-based, human. Conditions: 24 hours treatment. How it is done: FIGS. 5A-C show experimental results relating to SAR studies and target engagement inside the cells. FIG. 5A is a graph showing experimental results relating to inhibition of i-20S β5i and c-20S β5c by selected dipeptides. […] FIG. 5C is an image of an SDS-page gel showing accumulation of poly-ubiquitinylated (ub) proteins. Karpas cells were treated with dipeptides, or with bortezomib as a control, at indicated concentrations for 24 hours, and the poly-ub proteins in the lysates were blotted with anti-ub antibody and visualized with a second antibody directed against the first antibody and tagged with a dye that absorbs infrared light (Odyssey® CLx imaging system, LICOR).

Data set [2] has as its system Karpas 1106p cells. Description: Cytotoxicity (LD50) against Karpas lymphoma cells. Format: cell-based, human. Conditions: Table 4.
Another data set concerns the target hu i-20S β5i-subunit (Homo sapiens, UniProt P20618+P28062). The experiment in a line: N,C-capped dipeptides IC50, Ac-ANW-AMC fluorescence assay. Format: biochemical.
The test system of data set [3] is TNBS-induced colitis. The experiment in a line: TNBS-induced colitis in mice.
The subject of the next data set is 4T1 mammary carcinoma. Conditions: i.p. daily 6 mg/kg from Day 10, sacrifice Day 20; p<0.05.
Data set [4] deals with human B-lymphoma cell line. The experiment in a line: Cytotoxicity against B-lymphoma cell line. Particulars: concentrations up to 50 μM. Format: cell-based.
Data set [5] has as its system mouse bone marrow derived macrophages (BMDMs). The experiment in a line: Cytotoxicity against BMDMs. Conditions: concentrations up to 50 μM.
In data set [6] the test system is Karpas 1106p cells. Description: Cytotoxicity (LD50) against Karpas lymphoma cells. Particulars: Table 3. Type of data set: cell-based, human. From the text:
Table 3 lists the inhibition kinetic parameters, selectivity index, and calculated log Ps of selected dipeptides.

Data set [7] relates to HepG2 human hepatoma cells. Description: Cytotoxicity against HepG2. Particulars: concentrations up to 50 μM. Format: cell-based.
Data set [8] has as its system mouse bone marrow derived macrophages (BMDMs). Description: Cytokine production in LPS-activated macrophages (ELISA, qPCR). Format: cell-based. How it is done: Culture supernatants were harvested 24 hours (h) after LPS stimulation and analyzed for cytokine production by enzyme-linked immunosorbent assay (ELISA). Total RNA was isolated 4 h after LPS stimulation and analyzed by real time quantitative polymerase chain reaction (PCR) for IL-12p35 and IL-12/IL-23p40 genes. Data are expressed relative to levels of glyceraldehyde 3-phosphate dehydrogenase (GAPDH) levels and represent three independent experiments.
The dipeptide compounds and their relative inhibitory results on the βcomponent of the human immunoproteasome (β5i) and constitutive proteasome (β5c) are described in Examples 151 and 152.

Data set [9] deals with human peripheral blood mononuclear cells. Description: Cytotoxicity against PBMCs. Format: cell-based. Conditions: concentrations up to 50 μM.
The subject of another data set is mouse i-20S β5i. The experiment in a line: Predicted inhibition of mouse i-20S β5i over mouse c-20S β5c. Format: biochemical. Conditions: predicted from sequence identity.
Another data set has as its system RAW264 GFP-LC3 cells. The experiment in a line: Autophagy induction in RAW264 GFP-LC3 cells. Conditions: 10 nM, 37° C. overnight; bafilomycin A 20 nM 4 hours. Type of data set: cell-based, mouse. How it is done:
Prior to fixation with 4% paraformaldehyde, the cells were treated with bafilomycin A (20 nM), an inhibitor of the late phase of autophagy, for 4 hours. Fluorescent images were recorded digitally with a multiphoton microscope. […]

The test system of data set [10] is mouse bone marrow derived macrophages (BMDMs). Conditions: Muchamuel et al. 2009; cited from earlier work.
The subject of data set [11] is TNBS-induced colitis. Conditions: Watanabe et al.; cited from earlier work.

Protocol for hu i-20S β5i-subunit: All inhibitory assays for N,C capped dipeptides were performed in a black solid-bottom 96-well plate. In general, compound plates were prepared starting from 10 mM in 3× series dilution to 15 μM. 1 μl of DMSO stock was transferred to a black 96-well plate and 100 μL of reaction mixture were added 15 μM N-acetyl-Alanine-Asparagine-Tryptophan-7-amino-4-methylcourmarin (Ac-ANW-AMC) or 25 μM succinyl-Leucine-Leucine-Valine-Tyrosine-7-amino-4-methyl-courmarin (succ-LLVY-AMC), 0.4 nM hu i-20S β5i-subunit or 0.2 nM hu c-20S β5c-subunit, 0.02% SDS, 1% BSA, 0.5 mM EDTA in 20 mM HEPES buffer at pH7.5. The plates were then spun at 1000 rpm for 1 minute, and the fluorescence units of each well were recorded at λex=360 nm, λem=460 nm for 2 hours. The slopes of the initial linear range of the time course were used to calculate the velocity, and relative activities were normalized to the velocities of the DMSO control.

In the case of `CC(C)(C)ONC(=O)C[C@H](NC(=O)CCc1ccccc1)C(=O)N[C@@H](Cc1ccc(F)cc1)C(=O)NCc1cccc2ccccc12` [DPLG-3], the IC50 in data set [1] is 110 nM. For the same compound, the “accumulation of poly-ubiquitinylated proteins” value in the data set with Karpas cells is reported as “did not cause accumulation”. Moreover, in the data set with Karpas 1106p cells [2], the “LD50 Karpas” value came out at 2.04 µM. Moreover, the mode of inhibition entry on hu i-20S β5i-subunit is reported as “competitive inhibition”. In the data set on TNBS-induced colitis [3] (I.P. 3-12 mg/kg, TNBS mice), the adverse effects result is recorded as “did not cause detectable adverse effects”. Besides, in the data set with TNBS-induced colitis [3] (I.P. at day −1, 1 and 3, 3, 6 and 12 mg/kg, dose-dependent), the colitis-induced weight loss entry is recorded as “strongly inhibited colitis-induced weight loss”. Moreover, the “colitis-induced weight loss / pathogenesis” value with TNBS-induced colitis [3] (one-time i.v. injection (6 mg/kg) at time of TNBS challenge, WT mice) was “strongly inhibited colitis-associated pathogenesis; also recorded: strongly inhibited colitis-induced weight loss”. Also, in the data set on 4T1 mammary carcinoma, the “tumor size and weight” value was “reducing the size and weight”. The cytotoxicity result in data set [4], in data set [5], in [7] and in data set [9] was “not cytotoxic” throughout. The same compound returned an LD50 with Karpas 1106p cells [6] of 2.04 µM. Also, the IL-10 production entry in data set [8] is listed as “no significant effects”. Further, the “sensitivity of IL-12 and IL-23 production vs TNF-α (factor)” value in data set [8] is recorded as 10-20. In addition, the “production of IL-12” value in [8] (LPS 1 μg/ml, 24 h, ELISA) is “dose-dependently inhibited”. For the same compound, the “production of IL-12/IL-23p40” value in data set [8] (LPS 1 μg/ml, 24 h, ELISA) is on record as “dose-dependently inhibited”. In addition, the “production of TNF-α” value in data set [8] (LPS 1 μg/ml, 24 h, ELISA) is reported as “dose-dependently inhibited”. In [8] (mRNA 4 h after LPS, qPCR relative to GAPDH), the “transcription of P35 and P40” value was “reduced”. The IL-6 production entry in data set [8] (on its own) is listed as “dose-dependently induced”. The “inhibition of mouse i-20S β5i over mouse c-20S β5c” value in the data set with mouse i-20S β5i is “potently and selectively inhibit”. Further, the induction of autophagy entry in the data set with RAW264 GFP-LC3 cells is given as “induces autophagy”.
Take `COc1ccc(C[C@H](NC(=O)[C@H](C)NC(=O)CN2CCOCC2)C(=O)N[C@@H](Cc2ccccc2)C(=O)[C@]2(C)CO2)cc1` [ONX 0914]: the “effect on cytokines analyzed” value in data set [10] is recorded as “inhibitory”.
Turning to `CC(=O)N[C@H]1C(O)O[C@H](CO)[C@@H](O)[C@@H]1O[C@H](C)C(=O)N[C@@H](C)C(=O)N[C@H](CCC(=O)O)C(N)=O` (mixture of isomers) [MDP, muramyl dipeptide], the protection from colitis result with TNBS-induced colitis [11] was “protected mice from colitis”.
